Experiment [1] concerns FLT3-transformed K562 cells. Nature of the experiment: MTT assay, inhibitors against FLT3 subfactors co-treated with imatinib. As to conditions: for Apoptotic effect and drug tolerance (MTT) when co-treated with imatinib: imatinib 1 μM plus inhibitor at three concentrations, 4 days, FIGS. 9a-9e; for Apoptotic effect and drug tolerance when JAK, STAT3, TAZ, TEAD and CD36 are inhibited: summary statement in the description, treatment conditions not given. Type of experiment: cell-based. The method, then:
AZD1480 (Selleckem, Cat. No. S2162) was used as a JAK inhibitor, C188-9 (Selleckem, Cat. No. S8605) was used as a STAT3 inhibitor, verteporfin (Selleckem, Cat. No. S1786) was used as a TAZ inhibitor, flufenamic acid (Selleckem, Cat. No. S4268) was used as a TEAD inhibitor, and sulfo-N-succinimidyl oleate (Cayman, Cat. No. 11211) was used as a CD36 inhibitor. […] After treating with each inhibitor for 4 days, MTT assay was conducted in the same manner as in Test Example 5 and absorbance was measured at 540 nm using a multiplate reader (FIG. 9).

For experiment [2], the system named is wild-type (WT) K562 cells. Nature of the experiment: Drug tolerance test: surviving cells counted after 17 days of anticancer drug treatment. In kind it is cell-based. As to conditions: 1 μM drug.
Experiment [3] has as its system FLT3-transformed K562 cells. The experiment is described as above. In kind it is cell-based. As to conditions: K562 FLT3, 1 μM drug. Here is the method: Drug tolerance was tested using FLT3-transformed K562 cells (ATCC, CCL-243) mimicking the blast crisis of chronic myelogenous leukemia.
After administering three anticancer drugs against chronic myelogenous leukemia for 17 days to the FLT3-transformed K562 cells, the surviving cells were counted (Table 1).

In experiment [4] the test system is FLT3-transformed K562 cells having resistance to three drugs (imatinib, dasatinib and nilotinib). As to conditions: single agent; FIGS. 4-7.
For experiment [5], the system named is FLT3-transformed K562 cells having resistance to imatinib. Briefly: MTT assay, FLT3 inhibitors co-administered with imatinib. Type of experiment: cell-based. Particulars: 1 μM imatinib alone, 5 days. Here is the method:
The cells were cultured using DMEM (Hyclone) containing 10% FBS (Gibco). […] The concentration of the FLT3 inhibitor was as follows. […] 5 days later, after adding 100 μL of an MTT labeling reagent included in a cell proliferation kit (Roche) to each well for 2 hours and then treating with […] of a solubilization solution for 24 hours, absorbance was measured at a wavelength of 540 nm using a multiplate reader (FIGS. 8a-8c).
A general note: Formazan colour is commonly taken as a measure of viable cells.

Take verteporfin: in experiment [1], the “Apoptotic effect and drug tolerance (MTT) when co-treated with imatinib” value is “remarkably enhanced apoptotic effect and inhibited drug tolerance”; the “Apoptotic effect and drug tolerance when JAK, STAT3, TAZ, TEAD and CD36 are inhibited” value was “apoptotic effect is enhanced remarkably and drug tolerance is inhibited”.
As for `Cc1cc(Nc2nc(N[C@@H](C)c3ncc(F)cn3)ncc2Cl)n[nH]1` [AZD1480], in experiment [1], the “Apoptotic effect and drug tolerance (MTT) when co-treated with imatinib” value was “remarkably enhanced apoptotic effect and inhibited drug tolerance”; the “Apoptotic effect and drug tolerance when JAK, STAT3, TAZ, TEAD and CD36 are inhibited” value was “apoptotic effect is enhanced remarkably and drug tolerance is inhibited”.
For the compound `Cc1nc(Nc2ncc(C(=O)Nc3c(C)cccc3Cl)s2)cc(N2CCN(CCO)CC2)n1` [dasatinib], the Cell number in experiment [2] (Day 0) is 1 × 10^5; in experiment [2] (Day 5) it was 0.8075 × 10^5; in experiment [2] (Day 9) it was 0.35 × 10^5; in experiment [2] (Day 11), 0.47 × 10^5; in experiment [2] (Day 13) it was 0 × 10^5; in experiment [2] (Day 15), 0 × 10^5. Moreover, the Cell number in experiment [2] (Day 17) was 0 × 10^5; in experiment [3] (Day 5), 1.57 × 10^5; in experiment [3] (Day 9), 2.87 × 10^5; in experiment [3] (Day 11) it was 2.23 × 10^5; in experiment [3] (Day 13) it was 2.26 × 10^5; in experiment [3] (Day 15), 1.76 × 10^5. In experiment [3] (Day 17), the Cell number is on record as 9.33 × 10^5.
For the compound `CCCCCCCC/C=C\CCCCCCCC(=O)ON1C(=O)CC(S(=O)(=O)O)C1=O` (centres unmarked) [sulfo-N-succinimidyl oleate], in experiment [1], the “Apoptotic effect and drug tolerance (MTT) when co-treated with imatinib” value was “remarkably enhanced apoptotic effect and inhibited drug tolerance”; the “Apoptotic effect and drug tolerance when JAK, STAT3, TAZ, TEAD and CD36 are inhibited” value was “apoptotic effect is enhanced remarkably and drug tolerance is inhibited”.
With `Cc1cn(-c2cc(NC(=O)c3ccc(C)c(Nc4nccc(-c5cccnc5)n4)c3)cc(C(F)(F)F)c2)cn1` [nilotinib], the Cell number is recorded as 1 × 10^5 in experiment [2] (Day 0); 0.9675 × 10^5 in experiment [2] (Day 5); 0.23 × 10^5 in experiment [2] (Day 9); 0.76 × 10^5 in experiment [2] (Day 11); 0.09 × 10^5 in experiment [2] (Day 13); 0 × 10^5 in experiment [2] (Day 15). The Cell number in experiment [2] (Day 17) is reported as 0 × 10^5; in experiment [3] (Day 0) it was 1 × 10^5; in experiment [3] (Day 5), 2.0975 × 10^5; in experiment [3] (Day 9), 1.38 × 10^5; in experiment [3] (Day 11), 2.64 × 10^5; in experiment [3] (Day 13), 2.84 × 10^5. Besides, the Cell number is given as 4.52 × 10^5 in experiment [3] (Day 15) and 17.1 × 10^5 in experiment [3] (Day 17). Besides, in experiment [4], the “Killing of resistant cells, treated only with the one agent” value is listed as “hardly killed”.
For `Cc1ccc(NC(=O)c2ccc(CN3CCN(C)CC3)cc2)cc1Nc1nccc(-c2cccnc2)n1` [imatinib], the Cell number in experiment [2] (Day 0) is on record as 1 × 10^5; in experiment [2] (Day 5), 0.485 × 10^5; in experiment [2] (Day 9), 0.058 × 10^5; in experiment [2] (Day 11) it was 0.52 × 10^5; in experiment [2] (Day 13), 0.175 × 10^5; in experiment [2] (Day 15), 0 × 10^5. Moreover, the Cell number in experiment [2] (Day 17) is reported as 0 × 10^5; in experiment [3] (Day 0) it was 1 × 10^5; in experiment [3] (Day 5) it was 1.013 × 10^5; in experiment [3] (Day 9), 1.905 × 10^5; in experiment [3] (Day 11), 1.82 × 10^5; in experiment [3] (Day 15) it was 3.17 × 10^5. Also, the Cell number in experiment [3] (Day 17) is reported as 14.3 × 10^5. In experiment [5], the “Killing of FLT3-overexpressed K562 cells (MTT), imatinib only” value is “could not be killed”. The “Killing of resistant cells, treated only with the one agent” value in experiment [4] is given as “hardly killed”.
In the case of `O=C(O)c1ccccc1Nc1cccc(C(F)(F)F)c1` [flufenamic acid], in experiment [1], the “Apoptotic effect and drug tolerance (MTT) when co-treated with imatinib” value was “remarkably enhanced apoptotic effect and inhibited drug tolerance”; the “Apoptotic effect and drug tolerance when JAK, STAT3, TAZ, TEAD and CD36 are inhibited” value is “apoptotic effect is enhanced remarkably and drug tolerance is inhibited”.
In the case of `COc1ccc(S(=O)(=O)Nc2cc(-c3c(O)ccc4ccccc34)c(O)c3ccccc23)cc1` [C188-9], in experiment [1], the “Apoptotic effect and drug tolerance (MTT) when co-treated with imatinib” value was “remarkably enhanced apoptotic effect and inhibited drug tolerance”; the “Apoptotic effect and drug tolerance when JAK, STAT3, TAZ, TEAD and CD36 are inhibited” value is “apoptotic effect is enhanced remarkably and drug tolerance is inhibited”.

Values taken from patent US20210252009A1, “COMPOSITION COMPRISING FLT3 INHIBITOR AS EFFECTIVE INGREDIENT FOR INHIBITING DRUG RESISTANCE IN CHRONIC MYELOGENOUS LEUKEMIA” (INDUSTRY-ACADEMIC COOPERATION FOUNDATION, YONSEI UNIVERSITY, priority 2018, published 2021).
